Reference: patent US20260108546A1 (ELI LILLY AND COMPANY, priority 2024, published 2026)

Molecular target: T1, hGIP-R (Homo sapiens, UniProt P48546)
T1 construct: expressed in transfected cells; host or cells: HEK-293 clonal cell lines
T1 sequence (P48546 22-466): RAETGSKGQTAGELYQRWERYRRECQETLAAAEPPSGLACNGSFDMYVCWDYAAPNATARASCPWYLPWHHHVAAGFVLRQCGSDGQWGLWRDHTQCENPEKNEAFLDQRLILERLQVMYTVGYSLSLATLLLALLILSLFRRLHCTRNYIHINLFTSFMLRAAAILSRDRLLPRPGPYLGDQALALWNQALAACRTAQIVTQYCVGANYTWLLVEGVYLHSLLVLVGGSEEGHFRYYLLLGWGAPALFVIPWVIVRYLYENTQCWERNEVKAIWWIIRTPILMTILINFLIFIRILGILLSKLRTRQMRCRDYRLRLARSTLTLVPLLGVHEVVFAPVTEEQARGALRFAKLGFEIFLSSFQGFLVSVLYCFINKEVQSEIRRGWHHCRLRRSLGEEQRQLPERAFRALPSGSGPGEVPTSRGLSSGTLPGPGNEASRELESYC
Assay: Functional hGIP-R Assay (cAMP formation, HTRF)
Assay type: cell-based
Settings: for Emax: cAMP efficacy, percent of maximal response to GIP(1-42)OH, 37° C., 0.1% bovine casein, arithmetic mean ± SEM; for EC50: cAMP potency, HEK-293 cells expressing hGIP-R, incubated at 37° C. in the presence of 0.1% bovine casein, geometric mean, read-out: Human GIP-R EC50, nM (SEM, n)
Method in brief: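 HEK-293 cells expressing hGIP-R were given a 20-point compound series in DMEM with 0.1% casein, 250 μM IBMX, 1% DMSO, 30 min at 37 °C. cAMP was read by HTRF against a standard curve, expressed as % of human GIP (1-42) OH maximum; EC50 and Emax came from four-parameter fits.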

| Structure (SMILES) | Emax [%] | EC50 [nM] |
| --- | --- | --- |
| CC(C)(Cn1nc(C(F)(F)F)cc1-c1cn[nH]n1)NC(=O)[C@@H](Cc1cnc2ncccn12)NC(=O)[C@H]1C[C@@H]1c1ccc(-c2cnc3nc(C(F)(F)F)cn3c2)cc1 [Example 68, (1S,2S)-N—((R)-1-((1-(5-(2H-1,2,3-Triazol-4-yl)-3-(trifluoromethyl)-1H-pyrazol-1-yl)-2-methylpropan-2-yl)amino)-3-(imidazo[1,2-a]pyrimidin-3-yl)-1-oxopropan-2-yl)-2-(4-(2-(trifluoromethyl)imidazo[1,2-a]pyrimidin-6-yl)phenyl)cyclopropane-1-carboxamide] | 86.9 ± 7.93 | 0.904 |
| Cn1cc2cc(-c3ccc([C@H]4C[C@@H]4C(=O)N[C@H](Cc4cnc5ncccn45)C(=O)NC(C)(C)Cn4nc(C(F)(F)F)cc4-c4cn[nH]n4)cc3)cnc2n1 [Example 69, (1S,2S)-N-((R)-1-((1-(5-(2H-1,2,3-Triazol-4-yl)-3-(trifluoromethyl)-1H-pyrazol-1-yl)-2-methylpropan-2-yl)amino)-3-(imidazo[1,2-a]pyrimidin-3-yl)-1-oxopropan-2-yl)-2-(4-(2-methyl-2H-pyrazolo [3,4-b]pyridin-5-yl)phenyl)cyclopropane-1-carboxamide] | 87.8 ± 8.06 | 34 |
| CN(C(=O)[C@H]1C[C@@H]1c1ccc(-c2cnc3nn(C)cc3c2)cc1)[C@H](Cc1cnn(C)c1)C(=O)NC(C)(C)Cn1nc(C(F)(F)F)cc1-c1cn[nH]n1 [Example 70, (1S,2S)-N-((R)-1-((1-(5-(2H-1,2,3-Triazol-4-yl)-3-(trifluoromethyl)-1H-pyrazol-1-yl)-2-methylpropan-2-yl)amino)-3-(1-methyl-1H-pyrazol-4-yl)-1-oxopropan-2-yl)-N-methyl-2-(4-(2-methyl-2H-pyrazolo [3,4-b]pyridin-5-yl)phenyl)cyclopropane-1-carboxamide] | 102 ± 2.2 | 158 |
| CC(C)(Cn1cc(C(F)(F)F)cn1)NC(=O)[C@@H](Cc1cnc2ncccn12)NC(=O)[C@H]1C[C@@H]1c1ccc(-c2cnc3nc(C4CC(F)(F)C4)cn3c2)cc1 [Example 74, (1S,2S)-2-(4-(2-(3,3-Difluorocyclobutyl)imidazo[1,2-a]pyrimidin-6-yl)phenyl)-N-((R)-3-(imidazo[1,2-a]pyrimidin-3-yl)-1-((2-methyl-1-(4-(trifluoromethyl)-1H-pyrazol-1-yl)propan-2-yl)amino)-1-oxopropan-2-yl)cyclopropane-1-carboxamide] | 102 ± 3.65 | 13.6 |
| COCc1cn2cc(-c3ccc([C@H]4C[C@@H]4C(=O)N[C@H](Cc4cnc5ncccn45)C(=O)NC(C)(C)Cn4cc(C(F)(F)F)cn4)cc3)cnc2n1 [Example 75, (1S,2S)-N-((R)-3-(Imidazo[1,2-a]pyrimidin-3-yl)-1-((2-methyl-1-(4-(trifluoromethyl)-1H-pyrazol-1-yl)propan-2-yl)amino)-1-oxopropan-2-yl)-2-(4-(2-(methoxymethyl)imidazo[1,2-a]pyrimidin-6-yl)phenyl)cyclopropane-1-carboxamide] | 119 ± 6.64 | 65 |
| CC(C)(Cn1cc(C(F)(F)F)cn1)NC(=O)[C@@H](Cc1cnc2ncccn12)NC(=O)[C@H]1C[C@@H]1c1ccc(-c2cnc3nc(C4CC4)cn3c2)cc1 [Example 76, (1S,2S)-2-(4-(2-Cyclopropylimidazo[1,2-a]pyrimidin-6-yl)phenyl)-N-((R)-3-(imidazo[1,2-a]pyrimidin-3-yl)-1-((2-methyl-1-(4-(trifluoromethyl)-1H-pyrazol-1-yl)propan-2-yl)amino)-1-oxopropan-2-yl)cyclopropane-1-carboxamide] | 97.2 ± 7.63 | 16.2 |
| CC(C)(Cn1cc(C(F)(F)F)cn1)NC(=O)[C@@H](Cc1cnc2ncccn12)NC(=O)[C@H]1C[C@@H]1c1ccc(-c2cnc3nn(CC4CCC4)cc3c2)cc1 [Example 77, (1S,2S)-2-(4-(2-(Cyclobutylmethyl)-2H-pyrazolo[3,4-b]pyridin-5-yl)phenyl)-N-((R)-3-(imidazo[1,2-a]pyrimidin-3-yl)-1-((2-methyl-1-(4-(trifluoromethyl)-1H-pyrazol-1-yl)propan-2-yl)amino)-1-oxopropan-2-yl)cyclopropane-1-carboxamide] | 103 ± 12 | 88.2 |
| CC(C)(Cn1cc(C(F)(F)F)cn1)NC(=O)[C@@H](Cc1cnc2ncccn12)NC(=O)[C@H]1C[C@@H]1c1ccc(-c2cnc3nc(C4CCC4)cn3c2)cc1 [Example 78, (1S,2S)-2-(4-(2-Cyclobutylimidazo[1,2-a]pyrimidin-6-yl)phenyl)-N-((R)-3-(imidazo[1,2-a]pyrimidin-3-yl)-1-((2-methyl-1-(4-(trifluoromethyl)-1H-pyrazol-1-yl)propan-2-yl)amino)-1-oxopropan-2-yl)cyclopropane-1-carboxamide] | 113 ± 18.8 | 20.3 |
| CC(C)(Cn1cc(C(F)(F)F)cn1)NC(=O)[C@@H](Cc1cnc2ncccn12)NC(=O)[C@H]1C[C@@H]1c1ccc(-c2cnc3nc(C(F)F)cn3c2)cc1 [Example 79, (1S,2S)-2-(4-(2-(Difluoromethyl)imidazo[1,2-a]pyrimidin-6-yl)phenyl)-N-((R)-3-(imidazo[1,2-a]pyrimidin-3-yl)-1-((2-methyl-1-(4-(trifluoromethyl)-1H-pyrazol-1-yl)propan-2-yl)amino)-1-oxopropan-2-yl)cyclopropane-1-carboxamide] | 104 ± 5 | 25.1 |
| CC(C)(Cn1cc(C(F)(F)F)cn1)NC(=O)[C@@H](Cc1cnc2ncccn12)NC(=O)[C@H]1C[C@@H]1c1ccc(-c2cnc3nc(C(C)(F)F)cn3c2)cc1 [Example 80, (1S,2S)-2-(4-(2-(1,1-Difluoroethyl)imidazo[1,2-a]pyrimidin-6-yl)phenyl)-N-((R)-3-(imidazo[1,2-a]pyrimidin-3-yl)-1-((2-methyl-1-(4-(trifluoromethyl)-1H-pyrazol-1-yl)propan-2-yl)amino)-1-oxopropan-2-yl)cyclopropane-1-carboxamide] | 109 ± 4.1 | 28.6 |

Other lines, results leading:

| Emax [%] | EC50 [nM] | Structure (SMILES) |
| --- | --- | --- |
| 117 ± 0.667 | 33.1 | CC(C)(Cn1cc(C(F)(F)F)cn1)NC(=O)[C@@H](Cc1cnc2ncccn12)NC(=O)[C@H]1C[C@@H]1c1ccc(-c2cnc3nc(C4(C)CC4)cn3c2)cc1 [Example 81, (1S,2S)-N-((R)-3-(Imidazo[1,2-a]pyrimidin-3-yl)-1-((2-methyl-1-(4-(trifluoromethyl)-1H-pyrazol-1-yl)propan-2-yl)amino)-1-oxopropan-2-yl)-2-(4-(2-(1-methylcyclopropyl)imidazo[1,2-a]pyrimidin-6-yl)phenyl)cyclopropane-1-carboxamide] |
| 106 ± 2.58 | 36.4 | CCc1cn2cc(-c3ccc([C@H]4C[C@@H]4C(=O)N[C@H](Cc4cnc5ncccn45)C(=O)NC(C)(C)Cn4cc(C(F)(F)F)cn4)cc3)cnc2n1 [Example 82, (1S,2S)-2-(4-(2-Ethylimidazo[1,2-a]pyrimidin-6-yl)phenyl)-N-((R)-3-(imidazo[1,2-a]pyrimidin-3-yl)-1-((2-methyl-1-(4-(trifluoromethyl)-1H-pyrazol-1-yl)propan-2-yl)amino)-1-oxopropan-2-yl)cyclopropane-1-carboxamide] |
| 95.4 ± 7.12 | 44.1 | Cc1cn2cc(-c3ccc([C@H]4C[C@@H]4C(=O)N[C@H](Cc4cnc5ncccn45)C(=O)NC(C)(C)Cn4cc(C(F)(F)F)cn4)cc3)cnc2n1 [Example 83, (1S,2S)-N-((R)-3-(Imidazo[1,2-a]pyrimidin-3-yl)-1-((2-methyl-1-(4-(trifluoromethyl)-1H-pyrazol-1-yl)propan-2-yl)amino)-1-oxopropan-2-yl)-2-(4-(2-methylimidazo[1,2-a]pyrimidin-6-yl)phenyl)cyclopropane-1-carboxamide] |
| 89.7 | 37.8 | CC(C)(Cn1cc(C(F)(F)F)cn1)NC(=O)[C@@H](Cc1cnc2ncccn12)NC(=O)[C@H]1C[C@@H]1c1ccc(-c2cnc3nn(C4CCC4)cc3c2)cc1 [Example 84, (1S,2S)-2-(4-(2-Cyclobutyl-2H-pyrazolo[3,4-b]pyridin-5-yl)phenyl)-N-((R)-3-(imidazo[1,2-a]pyrimidin-3-yl)-1-((2-methyl-1-(4-(trifluoromethyl)-1H-pyrazol-1-yl)propan-2-yl)amino)-1-oxopropan-2-yl)cyclopropane-1-carboxamide] |
| 87 ± 0.761 | 41 | CC(C)(Cc1ccc(F)cn1)NC(=O)[C@@H](Cc1cnc2ncccn12)NC(=O)[C@H]1C[C@@H]1c1ccc(-c2cnc3nc(C(F)(F)F)cn3c2)cc1 [Example 85, (1S,2S)-N-((R)-1-((1-(5-Fluoropyridin-2-yl)-2-methylpropan-2-yl)amino)-3-(imidazo[1,2-a]pyrimidin-3-yl)-1-oxopropan-2-yl)-2-(4-(2-(trifluoromethyl)imidazo[1,2-a]pyrimidin-6-yl)phenyl)cyclopropane-1-carboxamide] |
| 71.1 ± 2.32 | 10.2 | CC(C)(Cc1ccc(F)cc1)NC(=O)[C@@H](Cc1cnc2ncccn12)NC(=O)[C@H]1C[C@@H]1c1ccc(-c2cnc3nc(C(F)(F)F)cn3c2)cc1 [Example 86, (1S,2S)-N-((R)-1-((1-(4-Fuorophenyl)-2-methylpropan-2-yl)amino)-3-(imidazo[1,2-a]pyrimidin-3-yl)-1-oxopropan-2-yl)-2-(4-(2-(trifluoromethyl)imidazo[1,2-a]pyrimidin-6-yl)phenyl)cyclopropane-1-carboxamide] |
